# Data reported in patent US20230312577A1, “DUAL KINASE-BROMODOMAIN INHIBITORS” (MONASH UNIVERSITY, priority 2020, published 2023).
# Tested on: OPM2 cells
# Assay: Cell proliferation assay (ViaLight, cellular ATP)
# Format: cell-based
# Settings: Homo sapiens, OPM-2, 120 h, 5 days, 5 μM to 1 nM
# Method: OPM2 cells (1×10^3) were plated in a 96 well plate. Test compounds were added to cells at final concentrations ranging from 5 μM to 1 nM. They were incubated for 5 days before they were analysed using ViaLight luminescence-based proliferation assays which detect cellular ATP, as per the manufacturer's instructions. All samples were prepared in technical triplicates. Data analysis was performed in GraphPad Prism version 7.00 for Mac OS X, (GraphPad Software, San Diego California USA) in order to calculate the GI50.
row,SMILES,GI50 [nM]
1,"COc1ccc(-c2cn3cc(C(=O)NCc4ccc(-c5ccc6c(c5)CC[C@H](C)N6C(C)=O)cc4)nc3c(N3CCOCC3)n2)cn1 [Cpd 058, (S)-N-(4-(1-Acetyl-2-methyl-1,2,3,4-tetrahydroquinolin-6-yl)benzyl)-6-(6-methoxypyridin-3-yl)-8-morpholinoimidazo[1,2-a]pyrazine-2-carboxamide]",100 to 500
2,"CC(=O)N1c2ccc(-c3ccc(CNC(=O)c4cn5cc(-c6cccc7[nH]ncc67)nc(N6CCOCC6)c5n4)cc3)cc2CC[C@@H]1C [Cpd 059, (S)-N-(4-(1-Acetyl-2-methyl-1,2,3,4-tetrahydroquinolin-6-yl)benzyl)-6-(1H-indazol-4-yl)-8-morpholinoimidazo[1,2-a]pyrazine-2-carboxamide]",≤ 100
3,"CC(=O)N1c2ccc(-c3ccc(CNC(=O)c4cn5cc(-n6c(C(F)F)nc7ccccc76)nc(N6CCOCC6)c5n4)cc3)cc2CC[C@@H]1C [Cpd 060, (S)-N-(4-(1-Acetyl-2-methyl-1,2,3,4-tetrahydroquinolin-6-yl)benzyl)-6-(2-(difluoromethyl)-1H-benzo[d]imidazol-1-yl)-8-morpholinoimidazo[1,2-a]pyrazine-2-carboxamide]",≤ 100
4,"CC(=O)N1c2ccc(-c3ccc(C(C)(C)NC(=O)c4cn5cc(-c6cnc(N)nc6)nc(N6CCOCC6)c5n4)cc3)cc2CC[C@@H]1C [Cpd 061, (S)-N-(2-(4-(1-Acetyl-2-methyl-1,2,3,4-tetrahydroquinolin-6-yl)phenyl)propan-2-yl)-6-(2-aminopyrimidin-5-yl)-8-morpholinoimidazo[1,2-a]pyrazine-2-carboxamide]",100 to 500
5,"CC(=O)N1c2ccc(-c3ccc([C@H](C)NC(=O)c4cn5cc(-c6cnc(N)nc6)nc(N6CCOCC6)c5n4)cc3)cc2CC[C@@H]1C [Cpd 062, N-((S)-1-(4-((S)-1-Acetyl-2-methyl-1,2,3,4-tetrahydroquinolin-6-yl)phenyl)ethyl)-6-(2-aminopyrimidin-5-yl)-8-morpholinoimidazo[1,2-a]pyrazine-2-carboxamide]",≤ 100
6,"CC(=O)N1c2ccc(-c3ccc([C@@H](C)NC(=O)c4cn5cc(-c6cnc(N)nc6)nc(N6CCOCC6)c5n4)cc3)cc2CC[C@@H]1C [Cpd 063, N-((R)-1-(4-((S)-1-Acetyl-2-methyl-1,2,3,4-tetrahydroquinolin-6-yl)phenyl)ethyl)-6-(2-aminopyrimidin-5-yl)-8-morpholinoimidazo[1,2-a]pyrazine-2-carboxamide]",≤ 100
7,"CC(=O)N1c2ccc(-c3ccc(CNC(=O)c4cn5cc(-c6cnc(N)nc6)nc(N6CCCCC6)c5n4)cc3)cc2CC[C@@H]1C [Cpd 064, (S)-N-(4-(1-Acetyl-2-methyl-1,2,3,4-tetrahydroquinolin-6-yl)benzyl)-6-(2-aminopyrimidin-5-yl)-8-(piperidin-1-yl)imidazo[1,2-a]pyrazine-2-carboxamide]",100 to 500
8,"CC(=O)N1c2ccc(-c3ccc(CNC(=O)c4cc5c(N6CCOCC6)nc(-c6cnc(N)nc6)cn5n4)cc3)cc2CC[C@@H]1C [Cpd 067, (S)-N-(4-(1-Acetyl-2-methyl-1,2,3,4-tetrahydroquinolin-6-yl)benzyl)-6-(2-aminopyrimidin-5-yl)-4-morpholinopyrazolo[1,5-a]pyrazine-2-carboxamide]",≤ 100
9,"CC(=O)N1c2ccc(-c3ccc(CNC(=O)c4cc5c(N6CCOCC6)nc(-c6cnc(N)nc6)c(Cl)n5n4)cc3)cc2CC[C@@H]1C [Cpd 068, (S)-N-(4-(1-Acetyl-2-methyl-1,2,3,4-tetrahydroquinolin-6-yl)benzyl)-6-(2-aminopyrimidin-5-yl)-7-chloro-4-morpholinopyrazolo[1,5-a]pyrazine-2-carboxamide]",≤ 100
10,"CC(=O)N1c2ccc(-c3ccc(CNC(=O)c4cc5c(N6CCOCC6)nc(-c6cnc(N)nc6)cn5c4)cc3)cc2CC[C@@H]1C [Cpd 069, (S)-N-(4-(1-Acetyl-2-methyl-1,2,3,4-tetrahydroquinolin-6-yl)benzyl)-3-(2-aminopyrimidin-5-yl)-1-morpholinopyrrolo[1,2-a]pyrazine-7-carboxamide]",≤ 100
